Test results from patent US20240368191A1, “HETEROCYCLIC COMPOUNDS AND USES THEREOF” (Kumquat Biosciences Inc., priority 2021, published 2024).

Legend:
[1] = target: T1, KRAS G12D 1-169 (His-tagged, GDP-loaded) (Homo sapiens, UniProt P01116, G12D); experiment: Covalent modification of KRAS protein by intact-protein LC-MS; format: binding; conditions: comparable or same conditions as K-Ras G12S
T1 construct: His -tagged GDP-loaded G12D 1-169; made in house; host or cells: E. coli, e.g. BL21 (DE3)
How it was run: (§1)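 Percent modification is derived from deconvoluted intact-protein LC-ESI-MS peak intensities of adducted versus unmodified KRAS. GDP-loaded His-tagged KRAS 1-169 (~2 μM, HEPES buffer at physiological conditions) was exposed to compound for 24 hrs at room temperature, then quenched with formic acid before C4 reversed-phase separation.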

[2] = target: T2, KRAS G12S 1-169 (His-tagged, GDP-loaded) (Homo sapiens, UniProt P01116, G12S); experiment: as above; format: binding; conditions: KRAS G12S, 24 hr
T2 construct: His -tagged GDP-loaded G12S 1-169; made in house; host or cells: E. coli, e.g. BL21 (DE3)
How it was run: as §1

K-Ras G12S = target: T3, K-Ras G12S (Homo sapiens, UniProt P01116, G12S); experiment: HTRF assay, K-Ras G12S / SOS1 interaction; format: biochemical; conditions: IC50 against K-Ras G12D divided by IC50 against K-Ras G12S
T3 construct: made in house; host or cells: E. coli, e.g. BL21 (DE3)
Excerpt: This assay can be also used to assess a selective inhibition or reduction of signaling output of a mutant Ras protein relative to a wildtype, or relative to a different mutant Ras protein. For example, the equilibrium interaction of wildtype Kras or K-Ras mutant (e.g., wildtype or a mutant thereof including those mentioned in Example 6) with SOS1 (e.g., hSOS1) can be assessed as a proxy or an indication for a subject compound's ability to bind and inhibit Ras protein. HTRF assay detects from (i) a fluorescence resonance energy transfer (FRET) donor (e.g., antiGST-Europium) that is bound to GST-tagged K-Ras mutant to (ii) a FRET acceptor (e.g., anti-6His -XL665) bound to a His -tagged hSOS1.
The assay buffer can contain ˜5 mM HEPES pH 7.4, ˜150 mM NaCl, ˜1 mM DTT, 0.05% BSA and 0.0025% (v/v) Igepal. A Ras working solution is prepared in an assay buffer containing typically a suitable amount of the protein construct (e.g., GST-tagged K-Ras mutant) and the FRET donor (e.g., antiGST-Eu(K) from Cisbio, France). A SOS1 working solution is prepared in an assay buffer containing suitable amount of the protein construct (e.g., His -hSOS1) and the FRET acceptor (e.g., anti-6His -XL665 from Cisbio, France). A suitable amount of the protein construct will depend on the range of activity or range of IC50 values being detected or under investigation. For detecting IC50 within a range of 500 nM, the protein constructs of the same range of molarity can be utilized.
A fixed volume of DMSO with or without test compound is transferred into a 384-well plate. Ras working solution is added to all wells of the test plate. SOS1 working solution is added to all wells except for those that are subsequently filled the inhibitor control solution. Upon incubation for about 10 minutes or longer, the fluorescence is measured with a M1000Pro plate reader (Tecan) using HTRF detection (excitation 337 nm, emission 1: 620 nm, emission 2: 665 nm). Compounds are tested in duplicates at different concentrations (for example, 10 μM, 2.5 μM, 0.63 μM, 0.16 μM, 0.04 μM, 0.01 μM test compound). The ratiometric data (i.e., emission 2 divided by emission 1) is used to calculate IC50 values against Ras using GraphPad Prism (GraphPad software). Following this general procedure, samples were tested with or without a subject compound disclosed herein including compounds exemplified in Table 3 to assess their abilities to inhibit K-Ras G12S relative to another mutant (e.g., K-Ras G12D). Signaling output measured in terms of IC50 values can be obtained, a ratio of IC50 against one mutant relative to another mutant can be calculated. For instance, a selective reduction of K-Ras G12S signaling output can be evidenced by a ratio greater than one. In particular, a selective reduction of K-Ras G12S signaling relative to K-Ras G12D signaling is evidenced as the ratio of IC50 (against K-Ras G12D) to IC50 (against K-Ras G12S) is greater than 1.

A549 cells = experiment: Cell proliferation assay (CellTiter-Glo), K-Ras G12S cells; format: cell-based; conditions: A549 cells; Comparative Compound A lacking the warhead vs Compound B
Procedure: A549 (ATCC CRL-185) and LS123 (ATCC CRL-255) cell lines comprise a G12S mutation and can be used to assess Ras cellular signaling in vitro, e.g., in response to the compounds herein. A549 culture medium is prepared with RPMI-1640 and 10% heat-inactivated FBS. LS123 culture medium is prepared with RPMI-1640 and 10% heat-inactivated FBS. A CellTiter-Glo (CTG) luminescent based assay (Promega) is used to assess growth of the cells, as a measurement of the ability of the compounds herein to inhibit Ras signaling in the cells. The cells (e.g., 800 per well) are seeded in their respective culture medium in standard tissue culture-treated 384-well format plates (Falcon #08-772-116) or ultra-low attachment surface 384-well format plates (S-Bio #MS-9384WZ). The day after plating, cells are treated with a dilution series (e.g., a 10 point 3-fold dilution series) of the compounds herein (e.g., approximately 40 μl final volume per well). Cell viability can be monitored (e.g., approximately 6 days later) according to the manufacturer's recommended instructions, where the CellTiter-Glo reagent is added (e.g., approximately 10 μl), vigorously mixed, covered, and placed on a plate shaker (e.g., approximately for 20 min) to ensure sufficient cell lysis prior to assessment of luminescent signal. The IC50 values are determined using the four parameter fit. The resulting IC50 value is a measurement of the ability of the compounds herein to reduce cell growth of Ras-driven cells (e.g., tumor cell lines) in vitro and/or in vivo.

[3] = Metabolic (microsomal) stability assay; conditions: pooled liver microsomes, pH 7.4

Compound | covalent labeling of K-Ras G12D [1] | % G12S Modification at 24 hr. [2] | Ratio of IC50 KRAS G12D vs. IC50 KRAS G12S (K-Ras G12S) | Compound IC50 Ratio IC50 (Cpd A):IC50 (Cpd B) (A549 cells) | half-life at 0.5 μM [3] [min]
2-amino-4-(6-chloro-4-(8-(5- chloro-1H-1,2,4-triazole-1- carbonyl)-3,8-diazabicyclo- [3.2.1]octan-3-yl)-8-fluoro-2- (((2R,7aS)-2-fluorotetrahydro- 1H-pyrrolizin-7a(5H)-yl)meth- oxy)quinazolin-7-yl)-7-fluoro- benzo[b]thiophene-3-carbonitrile [Compound A194] | essentially no detectable labeling | ++ (++ indicates between about 1%-20% labelling) | A (A: indicates that the ratio of IC50 against KrasG12D vs. IC50 against KrasG12S is 1-fold or greater) | – | –
N#CCc1ncn(C(=O)N2CC3(C2)CN(c2nc(OC[C@@]45CCCN4C[C@H](F)C5)nc4c(F)c(-c5ccc(F)c6sc(N)c(C#N)c56)c(Cl)cc24)CCO3)n1 [Compound A110, 2-amino-4-(6-chloro-4-(2-(3-(cyanomethyl)-1H-1,2,4-triazole-1-carbonyl)-5-oxa-2,8-diazaspiro[3.5]nonan-8-yl)-8-fluoro-2-(((2R,7aS)-2-fluoro-tetrahydro-1H-pyrrolizin-7a(5H)-yl)methoxy)quinazolin-7-yl)-7-fluorobenzo[b]thio-phene-3-carbonitrile] | essentially no detectable labeling | – | – | >4 (A549 cells) | > 10
CN1CCC[C@H]1COc1nc(N2CCOC3(CN(C(=O)n4cncn4)C3)C2)c2cc(Cl)c(-c3ccc(F)c4sc(N)c(C#N)c34)c(F)c2n1 [Compound A137, 4-(4-(2-(1H-1,2,4-triazole-1-carbonyl)-5-oxa-2,8-diaza-spiro[3.5]nonan-8-yl)-6-chloro-8-fluoro-2-(((S)-1-methylpyr-rolidin-2-yl)methoxy)quinaz-olin-7-yl)-2-amino-7-fluoro-benzo[b]thiophene-3-carbonitrile] | essentially no detectable labeling | – | – | >4 (A549 cells) | –
N#Cc1cn(C(=O)N2CCC(Nc3nc(OC[C@@]45CCCN4C[C@H](F)C5)nc4c(F)c(-c5ccc(F)c6sc(N)nc56)c(Cl)cc34)CC2)cn1 [Compound A160, 1-(4-((7-(2-amino-7-fluorobenzo-[d]thiazol-4-yl)-6-chloro-8-fluoro-2-(((2R,7aS)-2-fluoro-tetrahydro-1H-pyrrolizin-7a(5H)-yl)methoxy)quinazolin-4-yl)amino)piperidine-1-car-bonyl)-1H-imidazole-4-carbo-nitrile] | – | – | A (A: indicates that the ratio of IC50 against KrasG12D vs. IC50 against KrasG12S is 1-fold or greater) | – | –
Nc1nc2c(-c3c(Cl)cc4c(N[C@H]5C[C@H]6CC[C@@H](C5)N6C(=O)n5cncn5)nc(OC[C@@]56CCCN5C[C@H](F)C6)nc4c3F)ccc(F)c2s1 [Compound A207, ((1R,3r,5S)-3-((7-(2-amino-7-fluorobenzo[d]thiazol-4-yl)-6-chloro-8-fluoro-2-(((2R,7aS)-2-fluorotetrahydro-1H-pyrrolizin-7a(5H)-yl)methoxy)quinazolin-4-yl)amino)-8-azabicyclo[3.2.1]-octan-8-yl)(1H-1,2,4-triazol-1-yl)methanone] | – | +++ (+++ indicates greater than 20% labelling) | A (A: indicates that the ratio of IC50 against KrasG12D vs. IC50 against KrasG12S is 1-fold or greater) | – | –
Cc1nc(C(C)C)nn1C(=O)N1CC2(C1)CN(c1nc(OC[C@@]34CCCN3C[C@H](F)C4)nc3c(F)c(-c4ccc(F)c5sc(N)c(C#N)c45)c(Cl)cc13)CCO2 [Compound A208, 2-amino-4-(6-chloro-8-fluoro-2-(((2R,7aS)-2-fluorotetrahydro-1H-pyrrolizin-7a(5H)-yl)meth-oxy)-4-(2-(3-isopropyl-5-meth-yl-1H-1,2,4-triazole-1-carbon-yl)-5-oxa-2,8-diazaspiro[3.5]-nonan-8-yl)quinazolin-7-yl)-7-fluorobenzo[b]thiophene-3-carbonitrile] | – | – | A (A: indicates that the ratio of IC50 against KrasG12D vs. IC50 against KrasG12S is 1-fold or greater) | – | –
(4-((7-(2-amino-7-fluorobenzo- [d]thiazol-4-yl)-6-chloro-8- fluoro-2-(((2R,7aS)-2-fluoro- tetrahydro-1H-pyrrolizin- 7a(5H)-yl)methoxy)quinazolin- 4-yl)amino)piperidin-1-yl)(2- chloro-1H-imidazol-1-yl)meth- anone [Compound A159] | – | – | A (A: indicates that the ratio of IC50 against KrasG12D vs. IC50 against KrasG12S is 1-fold or greater) | – | –
